Patent US10308659B2, “Pyridine derivatives” (Hoffmann-La Roche Inc., priority 2013, dated 2019)
pEC50: −log10 of the molar value.

Assays:
[1] = biological target: human CB2 receptors (Homo sapiens (Human), UniProt P34972); test: cAMP assay, CHO cells expressing human CB2 receptors; assay type: cell-based; details: functional cAMP assay, CHO cells expressing human CB2; read-out: EC50 CB2 human
Procedure, shortened: (§1)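 Transfected CHO cells were preincubated in Krebs Ringer bicarbonate buffer with 1 mM IBMX for 30 min at 30 °C, then exposed to compound for 30 min at 30 °C. cAMP was measured by time-resolved FRET (730/645 nm) against a standard curve spanning 10 μM to 0.13 nM. EC50 values derived from concentration–response data.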

[2] = biological target: human CB1 receptors (Homo sapiens (Human), UniProt P21554); test: cAMP assay, CHO cells expressing human CB1 receptors; assay type: cell-based; details: functional cAMP assay, CHO cells expressing human CB1; read-out: EC50 CB1 human
Procedure, shortened: as §1

Chain of human CB2 receptors (P34972 whole entry): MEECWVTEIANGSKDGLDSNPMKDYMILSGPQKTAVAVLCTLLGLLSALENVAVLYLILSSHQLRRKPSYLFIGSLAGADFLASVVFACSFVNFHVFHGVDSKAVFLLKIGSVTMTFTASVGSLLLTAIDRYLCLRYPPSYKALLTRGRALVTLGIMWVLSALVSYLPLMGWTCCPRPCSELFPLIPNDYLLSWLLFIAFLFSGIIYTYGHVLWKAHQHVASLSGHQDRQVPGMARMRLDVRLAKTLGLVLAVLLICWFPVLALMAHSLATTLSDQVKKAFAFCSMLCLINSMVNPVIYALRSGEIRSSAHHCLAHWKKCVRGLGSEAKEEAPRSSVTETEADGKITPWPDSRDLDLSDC
Chain of human CB1 receptors (P21554 whole entry): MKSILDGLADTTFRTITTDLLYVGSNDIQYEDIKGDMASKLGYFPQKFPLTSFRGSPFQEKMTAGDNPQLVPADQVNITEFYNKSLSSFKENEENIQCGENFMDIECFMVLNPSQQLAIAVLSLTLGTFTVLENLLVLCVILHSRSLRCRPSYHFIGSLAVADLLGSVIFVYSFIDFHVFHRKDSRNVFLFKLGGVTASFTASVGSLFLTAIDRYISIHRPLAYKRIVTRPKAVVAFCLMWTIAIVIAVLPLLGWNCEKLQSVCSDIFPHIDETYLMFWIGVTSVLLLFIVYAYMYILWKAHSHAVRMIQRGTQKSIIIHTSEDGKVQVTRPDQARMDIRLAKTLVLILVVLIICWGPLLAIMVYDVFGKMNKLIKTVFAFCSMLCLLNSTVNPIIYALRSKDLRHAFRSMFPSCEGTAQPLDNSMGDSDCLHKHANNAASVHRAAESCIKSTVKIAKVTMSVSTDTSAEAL

**Q.** What does the source list for CCN(CC)CC(C)Oc1cc(-c2noc(C(C)(C)C)n2)ncc1C1CC1 (stereo not shown) [Example 101, 2-[2-(5-tert-butyl-1,2,4-oxadiazol-3-yl)-5-cyclopropylpyridin-4-yl]oxy-N,N-diethylpropan-1-amine]?
**A.** pEC50 [1]: 6.85; pEC50 [2]: < 5.00

**Q.** With CC(C)(C)c1nc(-c2cc(OCCN3CCOCC3)c(C3CC3)cn2)no1 [Example 103, 4-[2-[2-(5-tert-butyl-1,2,4-oxadiazol-3-yl)-5-cyclopropylpyridin-4-yl]oxyethyl]morpholine] as the molecule, how does the pEC50 [1] read?
**A.** 7.54

**Q.** And the pEC50 [2]?
**A.** < 5.00

**Q.** Which results are given for CC(C)(C)c1nc(-c2cc(OC3CCCNC3)c(C3CC3)cn2)no1 (stereo not shown) [Example 104, 5-tert-butyl-3-(5-cyclopropyl-4-piperidin-3-yloxypyridin-2-yl)-1,2,4-oxadiazole]?
**A.** pEC50 [1]: 7.16; pEC50 [2]: < 5.00

**Q.** CC(C)(C)c1nc(-c2cc(OCC3(F)COC3)c(C3CC3)cn2)no1 [Example 105, 5-tert-butyl-3-[5-cyclopropyl-4-[(3-fluorooxetan-3-yl)methoxy]pyridin-2-yl]-1,2,4-oxadiazole] was tested. Which pEC50 [1] did it give?
**A.** 7.54

**Q.** What about the pEC50 [2] of the same molecule?
**A.** < 5.00

**Q.** How did the pEC50 [1] turn out when Cc1nc(COc2cc(-c3noc(C(C)(C)C)n3)ncc2C2CC2)c(C)o1 [Example 106, 5-tert-butyl-3-[5-cyclopropyl-4-[(2,5-dimethyl-1,3-oxazol-4-yl)methoxy]pyridin-2-yl]-1,2,4-oxadiazole] was run?
**A.** 6.89

**Q.** What about the pEC50 [2] of the same molecule?
**A.** < 5.00

**Q.** Cc1cc(COc2cc(-c3noc(C(C)(C)C)n3)ncc2C2CC2)no1 [Example 107, 5-tert-butyl-3-[5-cyclopropyl-4-[(5-methyl-1,2-oxazol-3-yl)methoxy]pyridin-2-yl]-1,2,4-oxadiazole] was tested. Which pEC50 [1] did it give?
**A.** 7.02

**Q.** What about the pEC50 [2] of the same molecule?
**A.** < 5.00

**Q.** What does the source list for CC(C)(C)c1nc(-c2cc(Oc3cccc(S(C)(=O)=O)c3)c(C3CC3)cn2)no1 [Example 108, 5-tert-butyl-3-[5-cyclopropyl-4-(3-methylsulfonylphenoxy)pyridin-2-yl]-1,2,4-oxadiazole]?
**A.** pEC50 [1]: 7.16; pEC50 [2]: < 5.00

**Q.** How did the pEC50 [1] turn out when CC(C)(C)c1nc(-c2cc(OC3CCOCC3)c(C3(F)COC3)cn2)no1 [Example 109, 5-tert-butyl-3-[5-(3-fluorooxetan-3-yl)-4-(oxan-4-yloxy)pyridin-2-yl]-1,2,4-oxadiazole] was run?
**A.** 6.79

**Q.** What about the pEC50 [2] of the same molecule?
**A.** < 5.00

**Q.** With CC(C)(C)c1nc(-c2cc(Oc3ccc(F)cc3)c(C3(F)COC3)cn2)no1 [Example 110, 5-tert-butyl-3-[5-(3-fluorooxetan-3-yl)-4-(4-fluorophenoxy)pyridin-2-yl]-1,2,4-oxadiazole] as the molecule, how does the pEC50 [1] read?
**A.** 6.99

**Q.** And the pEC50 [2]?
**A.** < 5.00

**Q.** How did the pEC50 [1] turn out when Cc1nc(C2(C)COC(c3cc(OCC(F)(F)F)c(C4CC4)cn3)=N2)no1 (stereo not shown) [Example 111, 3-[2-[5-cyclopropyl-4-(2,2,2-trifluoroethoxy)pyridin-2-yl]-4-methyl-5H-1,3-oxazol-4-yl]-5-methyl-1,2,4-oxadiazole] was run?
**A.** 7.24

**Q.** And the pEC50 [2]?
**A.** < 5.00

**Q.** With CC(C)(C)c1nc(-c2cc(OC3CCOCC3)c(C3CC3)c(Cl)n2)no1 [Example 114, 5-tert-butyl-3-[6-chloro-5-cyclopropyl-4-(oxan-4-yloxy)pyridin-2-yl]-1,2,4-oxadiazole] as the molecule, how does the pEC50 [1] read?
**A.** 8.43

**Q.** And the pEC50 [2]?
**A.** 6.34

**Q.** Which results are given for CC(C)(C)c1nc(-c2cc(OCC(F)F)c(C3CC3)cn2)no1 [Example 115, 5-tert-butyl-3-[5-cyclopropyl-4-(2,2-difluoroethoxy)pyridin-2-yl]-1,2,4-oxadiazole]?
**A.** pEC50 [1]: 8.70; pEC50 [2]: < 5.00

**Q.** CC(C)(C)c1nc(-c2cc(OCCF)c(C3CC3)cn2)no1 [Example 116, 5-tert-butyl-3-[5-cyclopropyl-4-(2-fluoroethoxy)pyridin-2-yl]-1,2,4-oxadiazole] was tested. Which pEC50 [1] did it give?
**A.** 7.81

**Q.** And the pEC50 [2]?
**A.** < 5.00

**Q.** With CC(C)(C)c1nc(-c2cc(OCc3ccccn3)c(C3CC3)cn2)no1 [Example 117, 5-tert-butyl-3-[5-cyclopropyl-4-(pyridin-2-ylmethoxy)pyridin-2-yl]-1,2,4-oxadiazole] as the molecule, how does the pEC50 [1] read?
**A.** 7.27

**Q.** And the pEC50 [2]?
**A.** < 5.00

**Q.** How did the pEC50 [1] turn out when CC(C)(C)c1nc(-c2cc(OCc3ccc(F)cn3)c(C3CC3)cn2)no1 [Example 118, 5-tert-butyl-3-[5-cyclopropyl-4-[(5-fluoropyridin-2-yl)methoxy]pyridin-2-yl]-1,2,4-oxadiazole] was run?
**A.** 7.46

**Q.** And the pEC50 [2]?
**A.** < 5.00

**Q.** Which results are given for CC(C)(C)c1nc(-c2cc(OCc3cccnc3)c(C3CC3)cn2)no1 [Example 119, 5-tert-butyl-3-[5-cyclopropyl-4-(pyridin-3-ylmethoxy)pyridin-2-yl]-1,2,4-oxadiazole]?
**A.** pEC50 [1]: 7.33; pEC50 [2]: < 5.00

**Q.** C[C@H](Oc1cc(-c2nnc(C(C)(C)C)o2)ncc1C1CC1)C(F)(F)F [Example 120, 2-tert-butyl-5-[5-cyclopropyl-4-[(2S)-1,1,1-trifluoropropan-2-yl]oxypyridin-2-yl]-1,3,4-oxadiazole] was tested. Which pEC50 [1] did it give?
**A.** 7.20

**Q.** And the pEC50 [2]?
**A.** < 5.00

**Q.** Which results are given for CC(C)(C)c1noc(-c2cc(OC3CCOCC3)c(C3CC3)cn2)n1 [Example 121, 3-tert-butyl-5-(5-cyclopropyl-4-(tetrahydro-2H-pyran-4-yloxy)pyridin-2-yl)-1,2,4-oxadiazole]?
**A.** pEC50 [1]: 9.00; pEC50 [2]: < 5.00

**Q.** With CN1CCC[C@H]1COc1cc(-c2nc(C(C)(C)C)no2)ncc1C1CC1 [Example 122, 3-tert-butyl-5-[5-cyclopropyl-4-[[(2S)-1-methylpyrrolidin-2-yl]methoxy]pyridin-2-yl]-1,2,4-oxadiazole] as the molecule, how does the pEC50 [1] read?
**A.** 6.84

**Q.** And the pEC50 [2]?
**A.** < 5.00

**Q.** Which results are given for CC(C)(C)c1noc(-c2cc(OCC(F)F)c(C3CC3)cn2)n1 [Example 123, 3-tert-butyl-5-(5-cyclopropyl-4-(2,2-difluoroethoxy)pyridin-2-yl)-1,2,4-oxadiazole]?
**A.** pEC50 [1]: 8.70; pEC50 [2]: < 5.00
